Experimental data taken from ChEMBL document CHEMBL4382266, “Melonoside B and Melonosins A and B, Lipids Containing Multifunctionalized ω-Hydroxy Fatty Acid Amides from the Far Eastern Marine Sponge Melonanchora kobjakovae” (J Nat Prod, 2018).
The source made the active and inactive calls. The calls are words filed in the database; no cut-off is given here.

Tests used:
Type in all cases: cell-based
[1] = Cytotoxicity against mouse JB6 Cl41 cells after 24 hrs assessed as reduction in cell viability at 6 to 12 uM by MTS assay
[2] = (§1) Inhibition of NFkB (unknown origin) expressed in mouse JB6 Cl41 cells after 24 hrs by luciferase reporter gene assay; conditions: Homo sapiens, JB6 Cl41, 24 h
[3] = target: Cellular tumor antigen p53 (Homo sapiens) (UniProt P04637); test: Inhibition of p53 (unknown origin) expressed in mouse JB6 Cl41 cells after 24 hrs by luciferase reporter gene assay
Homo sapiens [4] = species: Homo sapiens; test: Inhibition of NFkB (unknown origin) expressed in mouse JB6 Cl41 cells at 25 uM after 24 hrs by luciferase reporter gene assay relative to control
[5] = Cytotoxicity against mouse JB6 Cl41 cells after 24 hrs assessed as reduction in cell viability at 25 to 37 uM by MTS assay
[6] = target: Transcription factor Jun (Homo sapiens) (UniProt P05412); test: Inhibition of AP-1 (unknown origin) expressed in mouse JB6 Cl41 cells at 25 uM after 24 hrs by luciferase reporter gene assay relative to control
[7] = target: Transcription factor Jun (Homo sapiens) (UniProt P05412); test: Inhibition of AP-1 (unknown origin) expressed in mouse JB6 Cl41 cells after 24 hrs by luciferase reporter gene assay
Homo sapiens [8] = species: Homo sapiens; test: as §1

Chain of Cellular tumor antigen p53 (Homo sapiens) (P04637 whole entry, looked up): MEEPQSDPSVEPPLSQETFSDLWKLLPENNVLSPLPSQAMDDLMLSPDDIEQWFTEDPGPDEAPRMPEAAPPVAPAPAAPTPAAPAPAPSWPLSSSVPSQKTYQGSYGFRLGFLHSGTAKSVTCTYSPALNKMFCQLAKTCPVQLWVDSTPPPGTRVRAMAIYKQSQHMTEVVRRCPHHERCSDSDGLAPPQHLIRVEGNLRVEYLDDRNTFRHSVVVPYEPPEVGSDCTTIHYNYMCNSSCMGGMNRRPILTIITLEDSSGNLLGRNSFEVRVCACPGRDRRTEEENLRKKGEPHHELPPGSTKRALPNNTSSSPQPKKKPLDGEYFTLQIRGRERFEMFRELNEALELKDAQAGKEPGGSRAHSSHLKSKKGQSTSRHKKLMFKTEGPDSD
Chain of Transcription factor Jun (Homo sapiens) (P05412 whole entry): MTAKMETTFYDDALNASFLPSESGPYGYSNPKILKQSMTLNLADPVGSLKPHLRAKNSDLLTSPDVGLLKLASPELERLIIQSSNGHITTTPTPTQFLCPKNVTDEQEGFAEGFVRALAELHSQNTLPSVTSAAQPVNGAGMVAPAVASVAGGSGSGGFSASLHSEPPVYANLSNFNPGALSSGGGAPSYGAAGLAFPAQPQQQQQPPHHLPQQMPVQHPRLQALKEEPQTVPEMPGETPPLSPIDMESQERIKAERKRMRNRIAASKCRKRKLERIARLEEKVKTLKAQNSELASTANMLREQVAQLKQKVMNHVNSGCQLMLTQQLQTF

Row | IC50 [2] | inhibition [3] | inhibition [6] | inhibition [7] | Compound | Activity [1] | inhibition (Homo sapiens [4]) | Activity [5] | inhibition (Homo sapiens [8])
1 | 7.2 µM | inactive |  |  | CO[C@@H](CC/C=C\CCCCC(=O)CCCCCCC(=O)CC/C=C\CCCCCCO)C(=O)NCCc1ccc(O)cc1 | Non-Toxic |  |  | 
2 |  | inactive | 87% |  | CO[C@@H](CC/C=C\CCCCC(=O)CCCCC(=O)CCCCCCCCCCO)C(=O)NCCc1ccc(O)cc1 |  | 67% | Non-Toxic | 
3 |  | inactive |  | inactive | CO[C@@H](CC/C=C\CCCCC(=O)CCCCC(=O)CCCCCCCCCCO[C@@H]1O[C@H](C(=O)O)[C@@H](O)[C@H](O)[C@H]1O)C(=O)NCCc1ccc(O)cc1 |  |  |  | inactive
4 |  | inactive |  | inactive | CO[C@@H](CC/C=C\CCCCC(=O)CCCCCCC(=O)CC/C=C\CCCCCCO[C@@H]1O[C@H](C(=O)O)[C@@H](O)[C@H](O)[C@H]1O)C(=O)NCCc1ccc(O)cc1 |  |  |  | inactive
